Test results from ChEMBL document CHEMBL1201862, “PubChem BioAssay data set” (2004).
Active and inactive are the calls of the source.

Tests used:
[1] = molecular target: T1, Probable nicotinate-nucleotide adenylyltransferase (Staphylococcus aureus (strain N315), UniProt P65502); type: functional, Staphylococcus aureus subsp. aureus N315; conditions: read-out: IC50_Mean;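 as to IC50 Mean: confirmatory dose-response retesting of NadD inhibitor hits first found in an ultra-high-throughput screen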
[2] = molecular target: T2, Carboxy-terminal domain RNA polymerase II polypeptide A small phosphatase 1 (Homo sapiens, UniProt Q9GZU7); test: CTDSP1 inhibitors, concentration-response, biochemical, absorbance readout, ultra-high-throughput screen actives (AID 540297); type: functional
T2 sequence (Q9GZU7 whole entry): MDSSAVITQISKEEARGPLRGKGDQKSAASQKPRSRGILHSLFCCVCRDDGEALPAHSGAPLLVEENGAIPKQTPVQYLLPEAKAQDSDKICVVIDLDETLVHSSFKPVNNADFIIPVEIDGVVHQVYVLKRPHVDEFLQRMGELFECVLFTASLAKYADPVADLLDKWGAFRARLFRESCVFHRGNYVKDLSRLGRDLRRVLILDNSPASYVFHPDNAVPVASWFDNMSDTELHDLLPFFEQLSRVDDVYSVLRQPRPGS

[3] = molecular target: DNA dC->dU-editing enzyme APOBEC-3G (Homo sapiens, UniProt Q9HC16); test: Dose Response confirmation of small molecule APOBEC3G DNA Deaminase Inhibitors via a fluorescence-based single-stranded DNA deaminase assay. [Related pubchem assays (depositor defined):AID493012, AID493028]; type: functional
[4] = molecular target: T1, Probable nicotinate-nucleotide adenylyltransferase; type: functional, Staphylococcus aureus subsp. aureus N315
[5] = molecular target: DNA dC->dU-editing enzyme APOBEC-3A (Homo sapiens, UniProt P31941); test: A3A deaminase inhibition for selectivity – biochemical, dose response (AID 504722); type: functional
[6] = molecular target: G-protein coupled receptor 55 (Homo sapiens, UniProt Q9Y2T6); test: inhibition of LPI-stimulated GPR55 beta-arrestin translocation – imaging, U2OS, beta-arrestin-GFP, LPI agonist, primary screen (AID 2013); type: functional;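 also: antagonist potency measured as reduced agonist-driven arrestin aggregation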
Genome polyprotein = Genome polyprotein (dengue virus type 2, UniProt P29990); test: flavivirus cap methylation enzyme inhibition – biochemical, confirmation dose response, primary screen (AID 588689); type: functional
[7] = molecular target: T3, Zinc finger protein mex-5 (Caenorhabditis elegans, UniProt Q9XUB2); test: potency of MEX-5 RNA-binding blockers – biochemical, C. elegans, fluorescence polarization, dose response (AID 1960)
T3 sequence (Q9XUB2 whole entry): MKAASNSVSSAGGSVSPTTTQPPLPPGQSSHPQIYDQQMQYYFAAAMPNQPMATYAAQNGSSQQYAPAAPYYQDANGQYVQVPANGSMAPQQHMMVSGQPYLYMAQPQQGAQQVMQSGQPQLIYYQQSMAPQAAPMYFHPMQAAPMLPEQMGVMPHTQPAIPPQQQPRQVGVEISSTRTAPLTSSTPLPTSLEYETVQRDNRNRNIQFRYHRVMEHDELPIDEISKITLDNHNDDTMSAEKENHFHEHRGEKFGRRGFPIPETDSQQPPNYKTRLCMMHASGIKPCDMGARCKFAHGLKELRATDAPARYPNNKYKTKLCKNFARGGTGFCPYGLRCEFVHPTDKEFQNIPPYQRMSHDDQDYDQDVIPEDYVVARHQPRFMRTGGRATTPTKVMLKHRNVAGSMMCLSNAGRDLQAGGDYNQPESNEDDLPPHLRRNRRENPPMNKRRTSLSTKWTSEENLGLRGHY

[8] = molecular target: T4, RNA-binding protein pos-1 (Caenorhabditis elegans, UniProt G5EF15); test: disruptors of C. elegans POS-1 RNA interaction – biochemical, fluorescence polarization, dose response (AID 1964);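 also: purified POS-1 fused to maltose binding protein made in E. coli; potency of compounds blocking POS-1 binding to fluorescent RNA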
T4 sequence (G5EF15 whole entry): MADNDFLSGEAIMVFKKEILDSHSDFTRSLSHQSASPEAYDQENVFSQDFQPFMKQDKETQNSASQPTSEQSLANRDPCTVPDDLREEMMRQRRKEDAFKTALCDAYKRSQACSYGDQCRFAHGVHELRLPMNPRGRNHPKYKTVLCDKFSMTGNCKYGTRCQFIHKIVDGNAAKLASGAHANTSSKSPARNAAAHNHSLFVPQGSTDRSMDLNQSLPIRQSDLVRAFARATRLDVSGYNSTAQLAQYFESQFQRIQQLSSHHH

G-protein coupled receptor 55, sequence (Q9Y2T6 whole entry): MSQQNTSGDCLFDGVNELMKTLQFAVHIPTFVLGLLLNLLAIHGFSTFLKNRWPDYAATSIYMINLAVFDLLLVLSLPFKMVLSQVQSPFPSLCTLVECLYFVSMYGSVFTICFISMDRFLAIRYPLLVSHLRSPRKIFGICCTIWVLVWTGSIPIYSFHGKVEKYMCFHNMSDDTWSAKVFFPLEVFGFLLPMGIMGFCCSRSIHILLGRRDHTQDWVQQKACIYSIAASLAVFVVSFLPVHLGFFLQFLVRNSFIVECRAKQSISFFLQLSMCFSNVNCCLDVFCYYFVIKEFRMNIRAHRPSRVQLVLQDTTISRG
T1 sequence (P65502 whole entry, the tested form may be a part): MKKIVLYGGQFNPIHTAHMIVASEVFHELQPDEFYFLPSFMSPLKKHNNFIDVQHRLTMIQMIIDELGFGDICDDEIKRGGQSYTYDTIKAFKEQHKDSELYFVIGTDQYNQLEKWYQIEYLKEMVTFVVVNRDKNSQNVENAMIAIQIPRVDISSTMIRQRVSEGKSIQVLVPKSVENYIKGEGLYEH
Genome polyprotein, sequence (P29990 2492-3391 limits assumed): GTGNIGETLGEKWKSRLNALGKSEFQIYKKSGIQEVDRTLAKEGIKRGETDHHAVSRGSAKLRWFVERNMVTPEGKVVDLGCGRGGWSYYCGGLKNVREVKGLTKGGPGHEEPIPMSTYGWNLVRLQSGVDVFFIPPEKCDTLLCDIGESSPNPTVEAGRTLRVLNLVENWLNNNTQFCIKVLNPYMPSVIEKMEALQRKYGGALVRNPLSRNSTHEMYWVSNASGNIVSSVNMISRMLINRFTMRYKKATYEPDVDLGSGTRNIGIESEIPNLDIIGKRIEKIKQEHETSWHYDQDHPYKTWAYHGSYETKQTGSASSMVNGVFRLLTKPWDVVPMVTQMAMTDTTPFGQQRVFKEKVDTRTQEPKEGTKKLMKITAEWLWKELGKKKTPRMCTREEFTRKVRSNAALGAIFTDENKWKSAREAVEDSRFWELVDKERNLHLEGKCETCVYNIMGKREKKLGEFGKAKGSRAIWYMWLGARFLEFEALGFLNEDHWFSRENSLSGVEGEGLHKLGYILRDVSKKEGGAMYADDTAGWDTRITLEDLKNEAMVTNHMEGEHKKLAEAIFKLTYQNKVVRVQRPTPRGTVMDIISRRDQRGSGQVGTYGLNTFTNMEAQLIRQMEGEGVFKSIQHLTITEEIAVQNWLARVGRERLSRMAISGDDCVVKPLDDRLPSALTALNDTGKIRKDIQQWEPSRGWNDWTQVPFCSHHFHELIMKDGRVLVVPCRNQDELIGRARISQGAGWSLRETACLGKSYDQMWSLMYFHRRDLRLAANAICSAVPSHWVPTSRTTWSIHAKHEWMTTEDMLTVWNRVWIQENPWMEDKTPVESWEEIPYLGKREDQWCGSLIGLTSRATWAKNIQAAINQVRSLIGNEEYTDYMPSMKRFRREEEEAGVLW
DNA dC->dU-editing enzyme APOBEC-3A, sequence (P31941 whole entry): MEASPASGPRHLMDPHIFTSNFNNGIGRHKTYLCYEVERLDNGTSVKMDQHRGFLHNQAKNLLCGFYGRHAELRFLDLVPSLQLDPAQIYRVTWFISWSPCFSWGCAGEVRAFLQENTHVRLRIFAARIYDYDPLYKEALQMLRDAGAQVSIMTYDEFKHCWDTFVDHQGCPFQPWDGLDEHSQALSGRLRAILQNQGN
DNA dC->dU-editing enzyme APOBEC-3G, sequence (Q9HC16 whole entry): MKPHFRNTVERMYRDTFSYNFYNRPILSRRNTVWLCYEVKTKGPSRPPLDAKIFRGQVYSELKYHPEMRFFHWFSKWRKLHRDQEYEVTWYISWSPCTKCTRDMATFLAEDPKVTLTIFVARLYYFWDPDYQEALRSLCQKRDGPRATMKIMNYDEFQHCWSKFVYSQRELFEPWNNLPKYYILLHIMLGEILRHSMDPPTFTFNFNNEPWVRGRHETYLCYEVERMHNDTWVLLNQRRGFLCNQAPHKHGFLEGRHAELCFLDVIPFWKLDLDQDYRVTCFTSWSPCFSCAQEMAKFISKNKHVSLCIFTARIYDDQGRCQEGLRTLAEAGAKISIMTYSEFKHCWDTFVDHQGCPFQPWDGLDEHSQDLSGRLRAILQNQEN

Compound | IC50 [1] | IC50 [2] | IC50 [3] | IC50 [4] | IC50 [5] | IC50 [6] | IC50 (Genome polyprotein) | EC50 [7] | EC50 [8]
CCN(CC)C(=O)CSc1ncnc2c(-c3cccs3)nsc12 | 37.6 µM (active) | 3.16 µM (active) | 17.8 µM (active) | 12.9 µM (active) | 61.2 µM (active) |  |  |  | 
COc1ccc(S(=O)(=O)CC(=O)c2cc3cc(Br)ccc3oc2=O)cc1 |  |  |  |  |  | 2.11 µM (active) | > 100 µM (active) |  | 
COc1ccc(N2C(=O)NC(=O)/C(=C\c3c[nH]c4ccc(Br)cc34)C2=O)c(OC)c1 |  |  |  |  |  | 1.66 µM (active) |  | > 300 µM (inconclusive) | > 300 µM (inconclusive)
